# From patent publication US20250019520A1, “RELIEF PRECURSORS WITH ENHANCED STABILITY” (XSYS Germany GmbH, priority 2023, published 2025)
# Experiments:
# [1] = Printing plate evaluation: halftone and tonal values at 146 lpi; details: difference of tonal value of 5% halftone at 146 lpi versus plate without additional stabilizer
# Experimental: To obtain a cliché, the laser ablatable mask on the front side was imaged using a TfxX 20 laser (Flint Group Germany GmbH, Germany, rotational speed: 10 to 11 rounds/s, power: 35 W (100% intensity)). The relief precursor was exposed to UV light from the backside through the carrier foil for 20 to 40 s and from the front side through the mask layer for 15 min. During the exposure at room temperature (being around 18-25° C.), no active heating was present. As a result of the crosslinking reaction due to the exposure, the temperature of the plate rose to around 40° C. (machine type: Combi FIII (Flint Group Germany GmbH, Germany), UVA intensity […], UVA tube type: Philips TL 80 W/10-R). […]
# In this example, the effect of the stabilizer on the tonal values of the resulting printing plates was assessed since conventional stabilizers can impact tonal values as they may hinder curing. […] The stabilizer impact on the tonal value was calculated as the difference of the tonal value of the 5% halftone at 146 lpi of a plate without any additional stabilizer compared to the respective tonal value of a plate comprising a stabilizer.
# [2] = Thermal melt stability: onset time of crosslinking, SIS-rubber based formulation; format: physicochemical
# Experimental: The thermal melt stability was assessed by recording the melt viscosity during heating. Crosslinking of the sample was recorded as an increase in viscosity. Oscillatory rheological measurements were carried out using a Kinexus lab+rheometer (Malvern Instruments Ltd., UK) under isothermal (T=160° C.) conditions. Data was recorded using the corresponding software rSPACE version 1.76 (Malvern Instruments Ltd., UK). As measurement geometry, parallel plates with a diameter of 2.5 cm of the upper plate were chosen. As sample, a disc of a relief precursor with a diameter of 2.5 cm was used. Prior to measurement, any foils (e.g. the cover sheet) and mask layers were removed from the relief precursor. Measurements were carried out in oscillation single frequency mode. The frequency was set to 1 Hz. The gap between the parallel plates was set constant to the respective sample thickness. Data points were recorded every 15 s. The complex shear viscosity η* was monitored over time t. The “onset time of crosslinking” was identified as “the time when the difference quotient Δη*/Δt is ≥1 Pa, with Δt=15 s”. A higher onset time indicates a higher thermal stability and stability towards mechanical stress.
# In this example, another trial formulation based on a SIS tri-block copolymer was used. […]
# [3] = Kneading trials at 180° C., onset of crosslinking seen as increase in torque; format: physicochemical; details: kneading at 180° C. for 60 min, SBS binder plus stabilizer
# Experimental: Kneading trials were carried out using a ThermoFisher Scientifc Haake kneading device equipped with a Haake PolyLab OS RheoDrive 7 control unit, a Haake Rheomix 600 OS heating and kneading chamber with Roller Rotors R600. The torque and the sample temperature were recorded using the software PolySoft, version 2.1.0.1. For the measurement, a temperature of 180° C. was applied. The measurement was carried out for 60 min, respectively. The components were added to the kneading device as solids and were allowed to be mixed in the kneading device.
# In the given sample, the amount of stabilizer was varied in the range of 0 to 1.0 parts by weight and the excess was counterbalanced by the amount of binder, respectively.
# An increase in torque indicated the onset of crosslinking of the SBS-rubber due to insufficient stabilization. Without additional stabilizer, an increase in torque was observed within the first 10 min of measurement time. With BHT as stabilizer, an increase in torque was detected after 28 min of heating at 180° C. With ascorbyl palmitate, the best result was achieved, where crosslinking was observed after 50 min.
smiles,measurement,setting,value
CCCCCCCCCCCCCCCC(=O)OC[C@H](O)[C@H]1OC(=O)C(O)=C1O [Ascorbyl palmitate],Stabilizer impact on tonal value,[1],0.8%
same,Effect on the onset time of crosslinking compared with an equimolar amount of BHT,[2],more than five times as high
same,Onset time t/min,[3],50 min
